# Experimental data from publication PMC7129073 (Clinical Microbiology and Infection, 2015).
# Where two headings read alike, the source gives them in different places.
# Experiments:
# [1] = system: Acinetobacter; assay: Disk diffusion; type: cell-based; details: 37 isolates selected as resistant to beta-lactams
# [2] = system: S. pneumoniae (SPN); assay: NCCLS broth microdilution, fluoroquinolones 1999–2004; type: cell-based, Streptococcus pneumoniae; details: for MIC50 / MIC90: Streptococcus pneumoniae
# [3] = system: glycopeptide intermediate Staphylococcus species (GISS); assay: VITEK II, screening plate and E test, blood isolates; type: cell-based, coagulase-negative Staphylococci; details: 73 GISS strains
# [4] = system: MSSA; assay: Agar dilution MIC; type: cell-based, Staphylococcus aureus; details: for MIC50 / MIC90: Staphylococcus aureus, MSSA
# [5] = system: S. pneumoniae; assay: Broth microdilution; type: cell-based, Streptococcus pneumoniae; details: 275 isolates
# [6] = system: S. pneumoniae; assay: PROTEKT Italy, NCCLS microdilution; type: cell-based, Streptococcus pneumoniae
# [7] = system: MRSA; assay: Agar dilution MIC; type: cell-based, Staphylococcus aureus; details: Staphylococcus aureus, MRSA
# [8] = system: nontyphoidal Salmonella; assay: Agar dilution, isolates from chickens 1998–2004; type: cell-based, Salmonella spp.
# [9] = system: H.influenzae; assay: Broth microdilution; type: cell-based, Haemophilus influenzae; details: for %Sus: NCCLS
# [10] = system: PRSP; assay: Broth microdilution; type: cell-based, Streptococcus pneumoniae
# [11] = system: ERSP; assay: Broth microdilution; type: cell-based, Streptococcus pneumoniae
# [12] = system: S. pneumoniae; assay: Broth microdilution; type: cell-based, Streptococcus pneumoniae
# [13] = system: Enterobacteriaceae; assay: SMART 2003 Europe, microdilution; type: cell-based; details: 1948 isolates
# [14] = system: K. oxytoca; assay: E-test susceptibility; type: cell-based, Klebsiella oxytoca
# [15] = system: Klebsiella; assay: SMART 2003 Europe, microdilution; type: cell-based, Klebsiella spp.; details: 341 isolates
# [16] = system: K. pneumoniae; assay: MIC; type: cell-based, Klebsiella pneumoniae; details: Klebsiella pneumoniae
# [17] = system: E. coli; assay: SMART 2003 Europe, microdilution; type: cell-based, Escherichia coli; details: 1106 isolates
# [18] = system: K. pneumoniae; assay: E-test susceptibility; type: cell-based, Klebsiella pneumoniae
# [19] = system: E. coli; assay: E-test susceptibility; type: cell-based, Escherichia coli
# [20] = system: Enterobacter spp; assay: E-test susceptibility; type: cell-based
# [21] = system: inducible Enterobacteriaceae; assay: SMART 2003, intraabdominal isolates; type: cell-based
# [22] = system: Shigella spp.; assay: Disk diffusion, stool isolates Tehran; type: cell-based; details: 96 isolates
# [23] = system: S. pneumoniae; assay: MIC of invasive strains, Saint George Hospital 2001–2004; type: cell-based, Streptococcus pneumoniae
# [24] = NCCLS breakpoints (Amox/Clav 2/1 mcg/mL)
# [25] = PK breakpoint of 4/2 mcg/mL, Augmentin ES-600
# [26] = ICU, SRGA breakpoints, tigecycline tentative S ≤2 μg/ml
molecule,measurement,setting,value
CC1(C)S[C@@H]2[C@H](NC(=O)C(C(=O)O)c3ccccc3)C(=O)N2[C@H]1C(=O)O (stereo partly shown) [carbenicillin],resistant isolates,[1],100.0%
"CO/N=C1\CN(c2nc3c(cc2F)c(=O)c(C(=O)O)cn3C2CC2)CC1CN (stereo not shown) [GEMI, gemifloxacin]",MIC range,[2],0.25 to 2 µg/mL
same,% I,[2]; 1999 (554),0.4%
same,% S,[2]; 1999 (554),99.6%
same,%R,[2]; 1999 (554),0.0%
same,% I,[2]; 2000 (508),0.2%
same,% S,[2]; 2000 (508),99.6%
same,%R,[2]; 2000 (508),0.2%
same,% I,[2]; 2001 (1.435),0.3%
same,% S,[2]; 2001 (1.435),99.4%
same,%R,[2]; 2001 (1.435),0.3%
same,% I,[2]; 2002 (1.502),0.3%
same,% S,[2]; 2002 (1.502),99.5%
same,%R,[2]; 2002 (1.502),0.2%
same,% I,[2]; 2003 (890),0.0%
same,% S,[2]; 2003 (890),100.0%
same,%R,[2]; 2003 (890),0.0%
same,% I,[2]; 2004 (1.003),0.7%
same,% S,[2]; 2004 (1.003),99.2%
same,%R,[2]; 2004 (1.003),0.1%
same,% I,[2]; All years (5.892),0.3%
same,% S,[2]; All years (5.892),99.5%
same,%R,[2]; All years (5.892),0.2%
same,MIC50,[2],0.5 µg/mL
same,MIC90,[2],1 µg/mL
same,MIC50,[2]; 1999 (554),≤ 0.03 µg/mL
same,MIC90,[2]; 1999 (554),≤ 0.03 µg/mL
same,MIC50,[2]; 2000 (508),≤ 0.03 µg/mL
same,MIC90,[2]; 2000 (508),≤ 0.03 µg/mL
same,MIC50,[2]; 2001 (1.435),0.016 µg/mL
same,MIC90,[2]; 2001 (1.435),0.03 µg/mL
same,MIC50,[2]; 2002 (1.502),0.016 µg/mL
same,MIC90,[2]; 2002 (1.502),0.03 µg/mL
same,MIC50,[2]; 2003 (890),0.016 µg/mL
same,MIC90,[2]; 2003 (890),0.03 µg/mL
same,MIC50,[2]; 2004 (1.003),0.016 µg/mL
same,MIC90,[2]; 2004 (1.003),0.03 µg/mL
same,MIC50,[2]; All years (5.892),0.016 µg/mL
same,MIC90,[2]; All years (5.892),0.03 µg/mL
same,MIC90,"[2]; read-out: MIC90 during the six years, 1999–2004",0.03 µg/mL
CC1(C)S[C@@H]2[C@H](NC(=O)[C@H](NC(=O)N3CCN(S(C)(=O)=O)C3=O)c3ccccc3)C(=O)N2[C@H]1C(=O)O [mezlocillin],resistant isolates,[1],100.0%
CO[C@H]1/C=C/O[C@@]2(C)Oc3c(C)c(O)c4c(O)c(c(/C=N/N5CCN(C)CC5)c(O)c4c3C2=O)NC(=O)/C(C)=C\C=C\[C@H](C)[C@H](O)[C@@H](C)[C@@H](O)[C@@H](C)[C@H](OC(C)=O)[C@@H]1C [rifampin],resistance rate,[3],"32,8%"
same,MIC50,[4],< 0.0075 µg/mL
same,MIC90,[4],< 0.0375 µg/mL
same,Susceptibility,[5],99.3%
same,susceptible,[6]; year 1: 2002,96.7%
same,susceptible,[6]; year 2: 2003,98.9%
same,MIC50,[7],< 32 µg/mL
same,MIC90,[7],< 32 µg/mL
trimethoprim/sulfadiazine [TS],resistance,"[8]; Belgian collection (caecal samples; Belgium, France, Netherlands)",18%
same,resistance,[8]; Germany (carcass meat),12%
Amoxicillin / Clavulanic acid [Amox/Clav],MIC90,[9],2 µg/mL
same,%Sus,[9],99.2%
same,MIC90,[10],8 µg/mL
same,%Sus,[10]; [24],67.1%
same,%Sus,[10]; [25],83.5%
same,MIC90,[11],8 µg/mL
same,%Sus,[11]; [24],81.5%
same,%Sus,[11]; [25],88.6%
same,MIC90,[12],2 µg/mL
same,%Sus,[12]; [24],92.3%
same,%Sus,[12]; [25],96.5%
CO/N=C(\C(=O)N[C@@H]1C(=O)N2C(C(=O)[O-])=C(C[N+]3(C)CCCC3)CS[C@H]12)c1csc(N)n1 [cefepime],per cent susceptible,[13],96%
same,Susceptible isolates,[14]; ICU,100%
same,Susceptible isolates,[14]; non ICU,96%
same,resistant isolates,[1],21.6%
same,per cent susceptible,[15],94%
same,MIC,[16],> 64 µg/mL
same,per cent susceptible,[17],96%
same,Susceptible isolates,[18]; ICU,98%
same,Susceptible isolates,[18]; non ICU,100%
same,Susceptible isolates,[19]; [26],98%
same,Susceptible isolates,[19]; non ICU,99%
same,Susceptible isolates,[20]; ICU,84%
same,Susceptible isolates,[20]; non ICU,92%
same,% susceptible,[21]; A/P (N = 200),89%
same,% susceptible,[21]; EU (N = 354),97%
same,% susceptible,[21]; LA (N=113),88%
same,% susceptible,[21]; NA (N = 163),92%
CO/N=C(\C(=O)N[C@@H]1C(=O)N2C(C(=O)O)=CCS[C@H]12)c1csc(N)n1 [ceftizoxime],resistant isolates,[1],86.5%
same,sensitive,[22],85%
"CO/N=C(\C(=O)N[C@@H]1C(=O)N2C(C(=O)O)=C(COC(N)=O)CS[C@H]12)c1ccco1 [Cefuroxime, cefuroxim]",MIC90,[9],2 µg/mL
same,%Sus,[9],96.7%
same,MIC90,[10],8 µg/mL
same,%Sus,[10]; [24],0.7%
same,MIC90,[11],8 µg/mL
same,%Sus,[11]; [24],26.0%
same,% S,[23],95.2%
same,%R,[23],4.8%
same,Susceptible isolates,[19]; [26],92%
same,Susceptible isolates,[19]; non ICU,94%
same,MIC90,[12],8 µg/mL
same,%Sus,[12]; [24],65.2%
"Cc1onc(-c2ccccc2Cl)c1C(=O)N[C@@H]1C(=O)N2[C@@H]1SC(C)(C)[C@@H]2C(=O)O [Cloxacilin, cloxacillin]",MIC50,[4],< 0.25 µg/mL
same,MIC90,[4],< 0.25 µg/mL
same,MIC range,[4]; n = 200,125 to 16000 µg/mL
CCN1CCN(C(=O)N[C@@H](C(=O)N[C@@H]2C(=O)N3C(C(=O)O)=C(CSc4nnnn4C)CS[C@H]23)c2ccc(O)cc2)C(=O)C1=O [cefoperazone],resistant isolates,[1],100.0%
